According to US9060971B2, “Combination pharmaceutical agents as inhibitors of HCV replication” (Enanta Pharmaceuticals, Inc., priority 2010, dated 2015):

system: HCV 1b genotype replicon; test: HCV replicon drug screening assay (quantitative RT-PCR or luciferase), genotype 1b; type: cell-based; conditions: Hepatitis C virus; HCV 1b genotype replicon; quantitative RT-PCR or luciferase assay; read-out: Genotype-1b replicon EC50 Range
Excerpt: HCV replicon cell lines (kindly provided by R. Bartenschlager) isolated from colonies as described by Lohman et. al. (Lohman et al. (1999) Science 285: 110-113, expressly incorporated by reference in its entirety) and used for all experiments. The HCV replicon has the nucleic acid sequence set forth in EMBL Accession No.: AJ242651, the coding sequence of which is from nucleotides 1801 to 8406.
The coding sequence of the published HCV replicon was synthesized and subsequently assembled in a modified plasmid pBR322 (Promega, Madison, Wis.) using standard molecular biology techniques. One replicon cell line (“SGR 11-7”) stably expresses HCV replicon RNA which consists of (i) the HCV 5′UTR fused to the first 12 amino acids of the capsid protein, (ii) the neomycin phosphotransferase gene (neo), (iii) the IRES from encephalomyocarditis virus (EMCV), and (iv) HCV NS2 to NS5B genes and the HCV 3′UTR. Another replicon cell line (“Huh-luc/neo-ET”) described by Vrolijk et. al. (Vrolijk et. al. (2003) Journal of Virological Methods 110:201-209, expressly incorporated by reference in its entirety) stably expresses HCV replicon RNA which consists of (i) the HCV 5′UTR fused to the first 12 amino acids of the capsid protein, (ii) the firefly luciferase reporter gene, (iii) the ubiquitin gene, (iv) the neomycin phosphotransferase gene (neo), (v) the IRES from encephalomyocarditis virus (EMCV), and (vi) HCV NS3 to NS5B genes that harbor cell culture adaptive mutations (E1202G, T12801, K1846T) and the HCV 3′UTR.
These cell lines are maintained at 37° C., 5% CO2, 100% relative humidity in DMEM (Cat#11965-084, Invitrogen), with 10% fetal calf serum (“FCS”, Invitrogen), 1% non-essential amino acids (Invitrogen), 1% of Glutamax (Invitrogen), 1% of 100× penicillin/streptomycin (Cat#15140-122, Invitrogen) and Geneticin (Cat#10131-027, Invitrogen) at 0.75 mg/ml or 0.5 mg/ml for 11-7 and Huh-luc/neo-ET cells, respectively.
EC50 values of single agent compounds and combinations were determined by HCV RNA detection using quantitative RT-PCR, according to the manufacturer's instructions, with a TAQMAN® One-Step RT-PCR Master Mix Reagents Kit (Cat#AB 4309169, Applied Biosystems) on an ABI Model 7500 thermocycler. The TaqMan primers to use for detecting and quantifying HCV RNA are 5′-GCTGCGGCCTGTCGAGCT-3′ (SEQ ID NO: 1), 5′-CAAGGTCGTCTCCGCATAC-3′ (SEQ ID NO: 2) and the probe 5′-FAM-[…]-BHQ-3′ (SEQ ID NO: 3) obtained from Integrated DNA Technologies. HCV RNA is normalized to GAPDH RNA levels in drug-treated cells, which is detected and quantified using the Human GAPDH Endogenous Control Mix (Applied Biosystems, AB 4310884E). Total cellular RNA is purified from 96-well plates using the RNAqueous 96 kit (Ambion, Cat#AM1812). Chemical agent cytotoxicity was evaluated using an MTS assay according to the manufacturer's directions (Promega).
The compounds described herein can be effective against the HCV 1b genotype. It should also be understood that the compounds can inhibit multiple genotypes of HCV. In one embodiment, compounds of Formula (I) are active against the 1a, 1b, 2a, 2b, 3a, 4a, and 5a genotypes. […] The EC50 ranges were classified into the following groups: A>10 nM; B 1-10 nM; C<1 nM. The potential cytotoxicities of each agent were analyzed in parallel by MTS assay and are greater than 3 uM for all agents.

`COC(=O)N[C@H](C(=O)N1CCC[C@H]1c1nc2cc(-c3ccc4cc(-c5c[nH]c([C@@H]6CCCN6C(=O)[C@@H](NC(=O)OC)[C@@H](C)OC)n5)ccc4c3)ccc2[nH]1)[C@@H](C)O` [Compound 53] and `CC[C@H](C)[C@H](NC(=O)OC)C(=O)N1CCC[C@H]1c1nc2cc(-c3ccc4cc(-c5c[nH]c([C@@H]6CCCN6C(=O)[C@@H](NC(=O)OC)[C@@H](C)OC)n5)ccc4c3)ccc2[nH]1` [Compound 54] cannot be ordered by EC50: under 1 nM for the first, under 1 nM for the second.

`COC(=O)N[C@H](C(=O)N1CCC[C@H]1c1nc(C#Cc2ccc(-c3ccc4[nH]c([C@@H]5CCCN5C(=O)[C@@H](NC(=O)OC)C(C)C)nc4c3)cc2)c[nH]1)C(C)C` [Compound 55] and `COC(=O)N[C@H](C(=O)N1CCC[C@H]1c1nc(C#Cc2ccc3cc(-c4ccc5[nH]c([C@@H]6CCCN6C(=O)[C@@H](NC(=O)OC)C(C)C)nc5c4)ccc3c2)c[nH]1)C(C)C` [Compound 57] cannot be ordered by EC50: under 1 nM for the first, under 1 nM for the second.

`COC(=O)N[C@H](C(=O)N1CCC[C@H]1c1nc(CCc2ccc(-c3ccc4[nH]c([C@@H]5CCCN5C(=O)[C@@H](NC(=O)OC)C(C)C)nc4c3)cc2)c[nH]1)C(C)C` [Compound 56] and `COC(=O)N[C@H](C(=O)N1CCC[C@H]1c1nc(CCc2ccc3cc(-c4ccc5[nH]c([C@@H]6CCCN6C(=O)[C@@H](NC(=O)OC)C(C)C)nc5c4)ccc3c2)c[nH]1)C(C)C` [Compound 58] cannot be ordered by EC50: under 1 nM for the first, under 1 nM for the second.

`COC(=O)N[C@H](C(=O)N1CCC[C@H]1c1nc(-c2ccc(C#Cc3ccc4[nH]c([C@@H]5CCCN5C(=O)[C@@H](NC(=O)OC)[C@@H](C)OC)nc4c3)cc2)c[nH]1)[C@@H](C)OC` [Compound 59] and `COC(=O)N[C@H](C(=O)N1CCC[C@H]1c1nc(-c2ccc(C#Cc3ccc4[nH]c([C@@H]5CCCN5C(=O)[C@@H](NC(=O)OC)[C@@H](C)OC)nc4c3)cc2)c[nH]1)C(C)C` [Compound 80] cannot be ordered by EC50: under 1 nM for the first, under 1 nM for the second.

`COC(=O)N[C@H](C(=O)N1CCC[C@H]1c1nc(-c2ccc3cc(C#Cc4ccc5[nH]c([C@@H]6CCCN6C(=O)[C@@H](NC(=O)OC)C(C)C)nc5c4)ccc3c2)c[nH]1)C(C)C` [Compound 60] and `COC(=O)N[C@H](C(=O)N1CCC[C@H]1c1nc(-c2ccc(C#Cc3ccc4[nH]c([C@@H]5CCCN5C(=O)[C@H](NC(=O)OC)C(C)C)nc4c3)cc2)c[nH]1)C(C)C` [Compound 83] cannot be ordered by EC50: under 1 nM for the first, under 1 nM for the second.

`COC(=O)N[C@H](C(=O)N1CCC[C@H]1c1nc(-c2ccc3cc(/C=C/c4ccc5[nH]c([C@@H]6CCCN6C(=O)[C@@H](NC(=O)OC)C(C)C)nc5c4)ccc3c2)c[nH]1)C(C)C` [Compound 61] and `COC(=O)N[C@H](C(=O)N1CCC[C@H]1c1nc(-c2ccc(/C=C/c3ccc4[nH]c([C@@H]5CCCN5C(=O)[C@@H](NC(=O)OC)C(C)C)nc4c3)cc2)c[nH]1)C(C)C` [Compound 69] cannot be ordered by EC50: under 1 nM for the first, under 1 nM for the second.

`COC(=O)N[C@H](C(=O)N1CCC[C@H]1c1nc(-c2ccc(C#Cc3ccc4[nH]c([C@@H]5CCCN5C(=O)[C@@H](OC(=O)OC)C(C)C)nc4c3)cc2)c[nH]1)C(C)C` [Compound 62] and `COC(=O)N[C@H](C(=O)N1CCC[C@H]1c1nc(-c2ccc(C#Cc3ccc4[nH]c([C@@H]5CCCN5C(=O)[C@@H](NC(C)=O)C(C)C)nc4c3)cc2)c[nH]1)C(C)C` [Compound 81] cannot be ordered by EC50: under 1 nM for the first, under 1 nM for the second.

`CCOC(=O)N[C@H](C(=O)N1CCC[C@H]1c1nc2cc(C#Cc3ccc(-c4c[nH]c([C@@H]5CCCN5C(=O)[C@@H](NC(=O)OC)C(C)C)n4)cc3)ccc2[nH]1)C(C)C` [Compound 63] and `COC(=O)N[C@@H](C)C(=O)N1CCC[C@H]1c1nc2cc(C#Cc3ccc(-c4c[nH]c([C@@H]5CCCN5C(=O)[C@@H](NC(=O)OC)C(C)C)n4)cc3)ccc2[nH]1` [Compound 76] cannot be ordered by EC50: under 1 nM for the first, under 1 nM for the second.

`COC(=O)N[C@H](C(=O)N1CCC[C@H]1c1nc(-c2ccc(C#Cc3cc(F)c4[nH]c([C@@H]5CCCN5C(=O)[C@@H](NC(=O)OC)C(C)C)nc4c3)cc2)c[nH]1)C(C)C` [Compound 64] and `COC(=O)N[C@H](C(=O)N1CCC[C@H]1c1nc(-c2ccc(C#Cc3cc4nc([C@@H]5CCCN5C(=O)[C@@H](NC(=O)OC)C(C)C)[nH]c4cc3Cl)cc2)c[nH]1)C(C)C` [Compound 65] cannot be ordered by EC50: under 1 nM for the first, under 1 nM for the second.

`COC(=O)N[C@H](C(=O)N1CCC[C@H]1c1nc(-c2ccc(C#Cc3ccc4[nH]c([C@@H]5CC(=O)CN5C(=O)[C@@H](NC(=O)OC)C(C)C)nc4c3)cc2)c[nH]1)C(C)C` [Compound 66] and `CC[C@H](NC(=O)OC)C(=O)N1CCC[C@H]1c1nc2cc(C#Cc3ccc(-c4c[nH]c([C@@H]5CCCN5C(=O)[C@@H](NC(=O)OC)C(C)C)n4)cc3)ccc2[nH]1` [Compound 77] cannot be ordered by EC50: under 1 nM for the first, under 1 nM for the second.

`[2H]c1c([2H])c(-c2c[nH]c([C@@H]3CCCN3C(=O)[C@@H](NC(=O)OC)C(C)C)n2)c([2H])c([2H])c1C#Cc1ccc2[nH]c([C@@H]3CCCN3C(=O)[C@@H](NC(=O)OC)C(C)C)nc2c1` [Compound 67] and `CCC[C@H](NC(=O)OC)C(=O)N1CCC[C@H]1c1nc2cc(C#Cc3ccc(-c4c[nH]c([C@@H]5CCCN5C(=O)[C@@H](NC(=O)OC)C(C)C)n4)cc3)ccc2[nH]1` [Compound 78] cannot be ordered by EC50: under 1 nM for the first, under 1 nM for the second.

`COC(=O)N[C@H](C(=O)N1CCC[C@H]1c1nc(-c2ccc3cc(-c4cc5nc([C@@H]6CCCN6C(=O)[C@@H](NC(=O)OC)C(C)C)[nH]c5cc4Cl)ccc3c2)c[nH]1)C(C)C` [Compound 68] and `C=C(c1ccc(-c2c[nH]c([C@@H]3CCCN3C(=O)[C@@H](NC(=O)OC)C(C)C)n2)cc1)c1ccc2nc([C@@H]3CCCN3C(=O)[C@@H](NC(=O)OC)C(C)C)[nH]c2c1` [Compound 70] cannot be ordered by EC50: under 1 nM for the first, under 1 nM for the second.

`COC(=O)N[C@H](C(=O)N1CCC[C@H]1c1nc(-c2ccc(CCc3ccc4[nH]c([C@@H]5CCCN5C(=O)[C@@H](NC(=O)OC)C(C)C)nc4c3)cc2)c[nH]1)C(C)C` [Compound 71] and `COC(=O)N[C@H](C(=O)N1CCC[C@H]1c1ncc(-c2ccc([C@H]3C[C@@H]3c3ccc4nc([C@@H]5CCCN5C(=O)[C@@H](NC(=O)OC)C(C)C)[nH]c4c3)cc2)[nH]1)C(C)C` [Compound 72] cannot be ordered by EC50: under 1 nM for the first, under 1 nM for the second.

`COC(=O)N[C@H](C(=O)N1CCC[C@H]1c1ncc(-c2ccc([C@@H]3C[C@H]3c3ccc4nc([C@@H]5CCCN5C(=O)[C@@H](NC(=O)OC)C(C)C)[nH]c4c3)cc2)[nH]1)C(C)C` [Compound 73] and `COC(=O)N[C@H](C(=O)N1CCC[C@H]1c1ncc(-c2ccc(-c3ccc(-c4ccc5nc([C@@H]6CCCN6C(=O)[C@@H](NC(=O)OC)C(C)C)[nH]c5c4)cc3)cc2)[nH]1)C(C)C` [Compound 74] cannot be ordered by EC50: under 1 nM for the first, under 1 nM for the second.

First: COC(=O)N[C@H](C(=O)N1CCC[C@H]1c1nc(-c2ccc(C#Cc3ccc4[nH]c([C@@H]5CCCN5C(=O)OC(C)(C)C)nc4c3)cc2)c[nH]1)C(C)C [Compound 75]
Second: COC(=O)N[C@H](C(=O)N1CCC[C@H]1c1nc2cc(C#Cc3ccc(-c4c[nH]c([C@@H]5CCCN5C(=O)OC(C)(C)C)n4)cc3)ccc2[nH]1)C(C)C [Compound 85]
The EC50 of the first is higher: 1 to 10 nM for the first, under 1 nM for the second. The second is the more potent here.

`COC(=O)N[C@H](C(=O)N1CCC[C@H]1c1nc(-c2ccc(C#Cc3ccc4[nH]c([C@@H]5CCCN5C(=O)[C@H](NC(=O)OC)c5ccccc5)nc4c3)cc2)c[nH]1)C(C)C` [Compound 79] and `COC(=O)N[C@H](C(=O)N1CCC[C@H]1c1nc2cc(C#Cc3ccc(-c4c[nH]c([C@@H]5CCCN5C(=O)[C@@H](NC(=O)OC)C(C)C)n4)cc3)ccc2[nH]1)c1ccccc1` [Compound 84] cannot be ordered by EC50: under 1 nM for the first, under 1 nM for the second.

For `COC(=O)N[C@H](C(=O)N1CCC[C@H]1c1nc(-c2ccc(C#Cc3ccc4[nH]c([C@@H]5CCCN5C(=O)[C@@H](c5ccccc5)C(C)C)nc4c3)cc2)c[nH]1)C(C)C` [Compound 82], the EC50 was under 1 nM.
